This note sets out measurements from publication PMC12394658, “Discovery of Zharp1-163 as a dual inhibitor of ferroptosis and necroptosis for the treatment of inflammatory disorders and kidney injury” (Cell Death Discovery, 2025).

The target of test [1] is RIPK1 (Homo sapiens, UniProt Q13546). Kind of test: ADP-Glo kinase assay with recombinant RIPK1 ([…] ATP, MBP substrate); binding curve also shown in Fig. 4A. In kind it is biochemical. For orientation: In ADP-Glo the light output rises with the ADP produced.
The target in test [2] is PIM1 (Homo sapiens, UniProt P11309). Kind of test: biochemical. Set-up: Kinase selectivity panel of 81 human kinases, ADP-Glo or HTRF, per cent inhibition at 1 uM. The method in brief:
(§1)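 Kinase-panel selectivity profiling of 81 kinases with compound at 1000 nM.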

The target of test [3] is T1, TRKB (Homo sapiens, UniProt Q16620).
T1 construct: gene NTRK2
Kind of test: biochemical. Set-up: Kinase selectivity panel of 81 human kinases, ADP-Glo or HTRF, per cent inhibition at 1 uM. The method in brief: as §1

The target of test [4] is EGFR (Homo sapiens, UniProt P00533). The test is described as follows: biochemical. Set-up: Kinase selectivity panel of 81 human kinases, ADP-Glo or HTRF, per cent inhibition at 1 uM. The method in brief:
as §1

For test [5], the target named is T2, MRCKβ (Homo sapiens, UniProt Q9Y5S2).
T2 construct: gene CDC42BPB
The test is described as follows: biochemical. Set-up: Kinase selectivity panel of 81 human kinases, ADP-Glo or HTRF, per cent inhibition at 1 uM. The essentials: as §1

Test [6] has as its target ROCK1 (Homo sapiens, UniProt Q13464). The test is described as follows: biochemical. Set-up: Kinase selectivity panel of 81 human kinases, ADP-Glo or HTRF, per cent inhibition at 1 uM. The essentials:
as §1

The target in test [7] is HIPK1 (Homo sapiens, UniProt Q86Z02). The test is described as follows: biochemical. Set-up: Kinase selectivity panel of 81 human kinases, ADP-Glo or HTRF, per cent inhibition at 1 uM. The essentials:
as §1

In test [8] the target is T3, AurB (Homo sapiens, UniProt Q96GD4).
T3 construct: gene AURKB
Kind of test: biochemical. Set-up: Kinase selectivity panel of 81 human kinases, ADP-Glo or HTRF, per cent inhibition at 1 uM. The method in brief:
as §1

The target in test [9] is PLK1 (Homo sapiens, UniProt P53350). The test is described as follows: biochemical. Set-up: Kinase selectivity panel of 81 human kinases, ADP-Glo or HTRF, per cent inhibition at 1 uM. The method in brief:
as §1

Test [10] deals with BRSK2 (Homo sapiens, UniProt Q8IWQ3). Kind of test: biochemical. Set-up: Kinase selectivity panel of 81 human kinases, ADP-Glo or HTRF, per cent inhibition at 1 uM. The method in brief: as §1
Test [11] deals with MAP2K1 (Homo sapiens, UniProt Q02750). Kind of test: biochemical. Set-up: Kinase selectivity panel of 81 human kinases, ADP-Glo or HTRF, per cent inhibition at 1 uM. The method in brief: as §1
In test [12] the target is CDK1/CycE1 (Homo sapiens, UniProt P06493). The test is described as follows: biochemical. Set-up: Kinase selectivity panel of 81 human kinases, ADP-Glo or HTRF, per cent inhibition at 1 uM. The essentials: as §1

SMILES strings stand for the structures.

ROCK1, sequence (Q13464 whole entry): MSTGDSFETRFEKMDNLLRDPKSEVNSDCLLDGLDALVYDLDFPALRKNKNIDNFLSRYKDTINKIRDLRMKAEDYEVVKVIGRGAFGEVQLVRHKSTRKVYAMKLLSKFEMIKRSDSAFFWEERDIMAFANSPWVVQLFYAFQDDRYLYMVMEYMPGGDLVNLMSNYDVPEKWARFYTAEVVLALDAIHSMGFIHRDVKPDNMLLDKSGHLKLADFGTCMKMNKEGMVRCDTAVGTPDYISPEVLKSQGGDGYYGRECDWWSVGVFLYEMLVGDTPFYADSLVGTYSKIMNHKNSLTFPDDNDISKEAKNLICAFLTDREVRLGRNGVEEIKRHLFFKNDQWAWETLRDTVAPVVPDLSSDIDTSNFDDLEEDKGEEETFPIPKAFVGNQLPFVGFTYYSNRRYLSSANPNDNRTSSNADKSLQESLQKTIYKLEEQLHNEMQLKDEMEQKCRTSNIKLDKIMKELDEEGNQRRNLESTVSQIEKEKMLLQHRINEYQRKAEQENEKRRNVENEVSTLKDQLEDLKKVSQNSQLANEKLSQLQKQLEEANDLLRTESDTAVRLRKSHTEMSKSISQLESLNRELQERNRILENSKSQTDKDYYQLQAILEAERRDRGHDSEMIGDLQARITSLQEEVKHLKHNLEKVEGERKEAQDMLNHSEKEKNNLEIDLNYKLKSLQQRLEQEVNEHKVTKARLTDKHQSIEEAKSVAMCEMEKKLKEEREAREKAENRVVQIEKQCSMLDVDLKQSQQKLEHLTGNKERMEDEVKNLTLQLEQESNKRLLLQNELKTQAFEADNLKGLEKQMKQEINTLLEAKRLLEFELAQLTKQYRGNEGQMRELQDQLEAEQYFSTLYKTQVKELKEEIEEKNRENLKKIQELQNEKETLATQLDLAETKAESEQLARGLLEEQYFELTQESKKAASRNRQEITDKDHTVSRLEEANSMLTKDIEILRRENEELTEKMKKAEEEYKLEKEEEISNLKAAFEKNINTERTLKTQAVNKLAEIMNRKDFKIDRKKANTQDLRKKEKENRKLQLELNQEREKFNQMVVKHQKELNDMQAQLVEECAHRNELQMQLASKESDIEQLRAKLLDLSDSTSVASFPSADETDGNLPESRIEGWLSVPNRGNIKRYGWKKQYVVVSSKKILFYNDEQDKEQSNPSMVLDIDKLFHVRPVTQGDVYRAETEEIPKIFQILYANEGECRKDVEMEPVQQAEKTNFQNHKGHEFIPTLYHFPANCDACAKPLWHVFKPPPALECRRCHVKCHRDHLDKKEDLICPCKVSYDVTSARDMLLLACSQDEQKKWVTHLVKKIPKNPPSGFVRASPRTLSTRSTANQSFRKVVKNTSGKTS
CDK1/CycE1, sequence (P06493 whole entry): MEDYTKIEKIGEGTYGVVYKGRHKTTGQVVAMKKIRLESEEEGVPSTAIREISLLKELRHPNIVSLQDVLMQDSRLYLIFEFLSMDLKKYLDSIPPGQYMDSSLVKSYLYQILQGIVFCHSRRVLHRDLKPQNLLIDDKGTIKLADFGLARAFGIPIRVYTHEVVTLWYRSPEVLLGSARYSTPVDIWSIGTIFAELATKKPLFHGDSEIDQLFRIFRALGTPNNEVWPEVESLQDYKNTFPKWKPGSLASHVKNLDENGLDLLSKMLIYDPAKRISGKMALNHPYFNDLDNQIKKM
CDK1/CycE1, sequence (P24864 whole entry partner): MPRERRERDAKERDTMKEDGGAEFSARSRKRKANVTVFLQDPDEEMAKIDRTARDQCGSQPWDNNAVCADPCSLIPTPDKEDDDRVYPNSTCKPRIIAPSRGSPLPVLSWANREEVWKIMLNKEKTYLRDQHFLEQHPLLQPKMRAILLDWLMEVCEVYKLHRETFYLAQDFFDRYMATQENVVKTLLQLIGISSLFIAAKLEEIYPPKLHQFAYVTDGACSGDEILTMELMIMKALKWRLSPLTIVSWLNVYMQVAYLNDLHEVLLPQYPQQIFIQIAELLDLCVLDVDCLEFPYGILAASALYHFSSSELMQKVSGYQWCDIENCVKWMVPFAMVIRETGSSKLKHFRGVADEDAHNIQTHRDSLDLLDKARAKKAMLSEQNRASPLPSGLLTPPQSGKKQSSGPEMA
HIPK1, sequence (Q86Z02 whole entry): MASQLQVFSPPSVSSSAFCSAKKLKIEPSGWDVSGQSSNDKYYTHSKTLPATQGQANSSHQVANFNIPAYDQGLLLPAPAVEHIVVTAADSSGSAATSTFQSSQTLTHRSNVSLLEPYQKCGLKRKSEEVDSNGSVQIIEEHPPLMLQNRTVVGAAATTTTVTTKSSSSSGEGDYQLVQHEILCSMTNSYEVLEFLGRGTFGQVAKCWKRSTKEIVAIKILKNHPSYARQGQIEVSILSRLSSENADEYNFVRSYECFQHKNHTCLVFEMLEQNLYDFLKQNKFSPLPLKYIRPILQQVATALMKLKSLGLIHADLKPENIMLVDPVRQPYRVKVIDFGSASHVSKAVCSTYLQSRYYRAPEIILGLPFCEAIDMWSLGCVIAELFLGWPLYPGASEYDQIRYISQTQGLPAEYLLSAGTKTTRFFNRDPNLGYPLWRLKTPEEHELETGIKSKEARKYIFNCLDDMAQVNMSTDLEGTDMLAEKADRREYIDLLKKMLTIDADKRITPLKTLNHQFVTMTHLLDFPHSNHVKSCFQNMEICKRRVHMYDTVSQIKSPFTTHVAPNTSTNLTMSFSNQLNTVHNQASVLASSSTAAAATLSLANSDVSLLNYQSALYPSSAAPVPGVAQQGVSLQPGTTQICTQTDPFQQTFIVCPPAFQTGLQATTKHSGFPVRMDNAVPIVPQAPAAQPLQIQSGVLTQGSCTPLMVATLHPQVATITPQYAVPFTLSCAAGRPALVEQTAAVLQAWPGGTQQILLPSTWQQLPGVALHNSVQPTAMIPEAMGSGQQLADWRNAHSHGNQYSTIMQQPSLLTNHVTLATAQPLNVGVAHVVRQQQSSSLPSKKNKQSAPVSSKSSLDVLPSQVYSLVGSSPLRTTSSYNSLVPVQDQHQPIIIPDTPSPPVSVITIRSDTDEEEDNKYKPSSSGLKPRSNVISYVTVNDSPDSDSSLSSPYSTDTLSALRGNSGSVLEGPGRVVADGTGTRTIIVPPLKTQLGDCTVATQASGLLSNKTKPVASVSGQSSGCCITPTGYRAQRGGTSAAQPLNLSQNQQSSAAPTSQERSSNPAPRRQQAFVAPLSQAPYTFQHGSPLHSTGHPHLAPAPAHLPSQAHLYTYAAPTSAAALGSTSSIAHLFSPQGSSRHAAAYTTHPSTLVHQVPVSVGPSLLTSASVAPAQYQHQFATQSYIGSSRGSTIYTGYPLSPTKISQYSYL
T3 sequence (Q96GD4 whole entry): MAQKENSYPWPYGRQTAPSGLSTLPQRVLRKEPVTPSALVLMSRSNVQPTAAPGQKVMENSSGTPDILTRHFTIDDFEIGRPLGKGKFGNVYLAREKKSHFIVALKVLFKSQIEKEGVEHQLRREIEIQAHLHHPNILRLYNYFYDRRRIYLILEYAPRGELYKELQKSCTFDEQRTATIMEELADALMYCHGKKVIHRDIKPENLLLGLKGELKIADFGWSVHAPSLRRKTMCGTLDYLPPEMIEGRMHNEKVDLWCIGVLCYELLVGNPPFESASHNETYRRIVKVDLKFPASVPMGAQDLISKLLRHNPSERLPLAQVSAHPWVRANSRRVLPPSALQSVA
PLK1, sequence (P53350 whole entry): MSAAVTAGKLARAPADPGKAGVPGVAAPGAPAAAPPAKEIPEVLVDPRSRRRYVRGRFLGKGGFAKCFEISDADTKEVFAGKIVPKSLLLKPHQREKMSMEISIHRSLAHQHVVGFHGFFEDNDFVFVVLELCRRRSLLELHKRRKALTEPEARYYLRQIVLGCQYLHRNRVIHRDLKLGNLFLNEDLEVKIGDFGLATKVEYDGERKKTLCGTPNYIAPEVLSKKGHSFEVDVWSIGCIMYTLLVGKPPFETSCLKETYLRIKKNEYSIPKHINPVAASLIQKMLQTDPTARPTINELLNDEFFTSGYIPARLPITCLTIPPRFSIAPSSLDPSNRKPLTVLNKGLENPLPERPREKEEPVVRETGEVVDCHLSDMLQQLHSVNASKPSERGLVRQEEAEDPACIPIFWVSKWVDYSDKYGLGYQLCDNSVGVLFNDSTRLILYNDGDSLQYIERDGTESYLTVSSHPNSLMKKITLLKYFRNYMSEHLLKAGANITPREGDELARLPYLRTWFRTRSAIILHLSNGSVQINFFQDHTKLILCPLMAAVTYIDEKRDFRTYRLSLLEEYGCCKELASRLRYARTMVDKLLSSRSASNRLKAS
MAP2K1, sequence (Q02750 whole entry): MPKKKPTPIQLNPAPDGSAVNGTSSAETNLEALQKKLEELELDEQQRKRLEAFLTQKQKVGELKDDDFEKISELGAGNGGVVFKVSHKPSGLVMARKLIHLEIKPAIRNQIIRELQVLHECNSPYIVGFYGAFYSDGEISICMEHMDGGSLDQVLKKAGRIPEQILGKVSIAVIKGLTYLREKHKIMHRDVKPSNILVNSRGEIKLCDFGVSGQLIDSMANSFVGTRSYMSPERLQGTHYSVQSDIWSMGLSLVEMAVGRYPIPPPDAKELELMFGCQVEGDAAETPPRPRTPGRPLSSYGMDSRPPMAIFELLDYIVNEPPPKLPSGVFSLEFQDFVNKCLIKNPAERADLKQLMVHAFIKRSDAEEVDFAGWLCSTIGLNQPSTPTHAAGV
PIM1, sequence (P11309 whole entry): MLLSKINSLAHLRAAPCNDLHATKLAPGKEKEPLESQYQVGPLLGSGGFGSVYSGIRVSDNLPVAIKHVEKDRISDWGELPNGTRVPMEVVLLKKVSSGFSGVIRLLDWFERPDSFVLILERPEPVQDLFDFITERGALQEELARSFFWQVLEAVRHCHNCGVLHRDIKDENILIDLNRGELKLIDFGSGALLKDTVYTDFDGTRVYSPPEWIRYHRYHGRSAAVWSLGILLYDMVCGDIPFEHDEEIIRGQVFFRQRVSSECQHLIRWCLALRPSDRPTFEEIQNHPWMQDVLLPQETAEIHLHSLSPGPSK

`Nc1cn2cc(-c3cnc4c(c3)N(C(=O)OC3CCCCC3)CCO4)ccc2n1` [Zharp1-163]: the IC50 – broadly, the concentration at which inhibition is half-maximal – in test [1] is roughly 406 nM. The inhibition (in general, the drop in the measured response relative to a control, in per cent) at 1 µM in [2] (replicate Data1) was 3.88%; in test [2] (replicate Data2), 7.34%; in test [3] (replicate Data1), 61.4%; in test [3] (replicate Data2) it was 58.1%; in test [4] (replicate Data1) it was -2.16%; in test [4] (replicate Data2), -4.3%. The inhibition at 1 µM in test [5] (replicate Data1) is -0.71%; in [5] (replicate Data2), 4.66%; in test [6] (replicate Data1), 2.59%; in test [6] (replicate Data2), 4.57%; in test [7] (replicate Data1), 8.39%; in test [7] (replicate Data2) it was -1.36%. The inhibition at 1 µM is 8.89% in test [8] (replicate Data1); 13.4% in [8] (replicate Data2); -5.06% in [9] (replicate Data1); -18% in test [9] (replicate Data2); -6.15% in test [10] (replicate Data1); -3.32% in [10] (replicate Data2). Besides, the inhibition at 1 µM is -8.67% in [11] (replicate Data1), 0.16% in test [11] (replicate Data2), 5.77% in test [12] (replicate Data1) and 6.95% in test [12] (replicate Data2).
